In PubChem BioAssay AID330 (DTP/NCI, 2004):
Where “and” joins values, the source holds several entries; their conditions need not be identical. Identical values can stand only once. Inconclusive results and toxic doses are left out.

System: P388 leukemia ip, CD2F1 mice, survival T/C
Test: NCI In Vivo Anticancer Drug Screen. Data for tumor model P388 Leukemia (intraperitoneal) in CD2F1 (CDF1) mice
Conditions: endpoint: median survival time, higher = longer survival
In short: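 Mice carrying the transplanted tumor received test compound or vehicle. Survival was recorded in each group, and the value is the treated-group measurement divided by that of the vehicle-treated control group.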

[1] = dose: 50.0 mg/kg/injection, schedule: Q01DX009 (ip), vehicle: saline with Tween-80
[2] = dose: 100.0 mg/kg/injection, schedule: Q01DX009 (ip), vehicle: saline with Tween-80
[3] = dose: 200.0 mg/kg/injection, schedule: Q01DX009 (ip), vehicle: saline with Tween-80

## O=C(N[C@H](CO)[C@H]1CC(Br)=NO1)C(Cl)(Cl)Cl
dose: 11.25 mg/kg/injection, schedule: Q01DX005 (ip), vehicle: distilled water + Tween-80
  T/C: 102 % of control
dose: 22.5 mg/kg/injection, schedule: Q01DX005 (ip), vehicle: distilled water + Tween-80
  T/C: 105 % of control
dose: 45.0 mg/kg/injection, schedule: Q01DX005 (ip), vehicle: distilled water + Tween-80
  T/C: 107 % of control
dose: 90.0 mg/kg/injection, schedule: Q01DX005 (ip), vehicle: distilled water + Tween-80
  T/C: 112 % of control

## [Cl][Pt][Cl].[NH-]C(CO)C(=O)O (stereo unspecified)
dose: 6.25 mg/kg/injection, schedule: Q01DX005 (ip), vehicle: water
  T/C: 119 % of control
dose: 12.5 mg/kg/injection, schedule: Q01DX005 (ip), vehicle: water
  T/C: 113 % of control
dose: 25.0 mg/kg/injection, schedule: Q01DX005 (ip), vehicle: water
  T/C: 122 % of control
dose: 50.0 mg/kg/injection, schedule: Q01DX005 (ip), vehicle: water
  T/C: 153 % of control

## OC1C=C(c2ccccc2)C(O)(c2ccccc2)C1 (stereo unspecified)
dose: 50.0 mg/kg/injection, schedule: Q01DX009 (ip), vehicle: Klucel (hydroxypropylcellulose) (HPC)
  T/C: 100 % of control
dose: 100.0 mg/kg/injection, schedule: Q01DX009 (ip), vehicle: Klucel (hydroxypropylcellulose) (HPC)
  T/C: 100 % of control
dose: 200.0 mg/kg/injection, schedule: Q01DX009 (ip), vehicle: Klucel (hydroxypropylcellulose) (HPC)
  T/C: 92 % of control

## O=c1cccccc1Cl
[1]
  T/C: 104 % of control
[2]
  T/C: 101 % of control

## CC(/C=C(\C)N1CCCC1)=[N+]1CCCC1
dose: 0.12 mg/kg/injection, schedule: Q01DX009 (ip), vehicle: saline
  T/C: 111 % of control
dose: 0.25 mg/kg/injection, schedule: Q01DX009 (ip), vehicle: saline
  T/C: 111 % of control
dose: 0.5 mg/kg/injection, schedule: Q01DX009 (ip), vehicle: saline
  T/C: 108 % of control
dose: 1.0 mg/kg/injection, schedule: Q01DX009 (ip), vehicle: saline
  T/C: 109 % of control
dose: 2.0 mg/kg/injection, schedule: Q01DX009 (ip), vehicle: saline
  T/C: 109 % of control

## Cc1nn(C(=O)c2c(-c3ccccc3)noc2C)c(C)c1N=Nc1cc(C(F)(F)F)cc(C(F)(F)F)c1
[1]
  T/C: 87 % of control
[2]
  T/C: 87 % of control
[3]
  T/C: 97 % of control

## CC(C)S(=O)c1ccc(Cl)cc1[N+](=O)[O-] (stereo unspecified)
[1]
  T/C: 99 % of control
[2]
  T/C: 99 % of control
[3]
  T/C: 100 % of control

## O=C1CC(c2cccc(S(=O)(=O)O)c2)=NN1c1ccc([N+](=O)[O-])cn1
dose: 100.0 mg/kg/injection, schedule: Q04DX003 (ip), vehicle: saline
  T/C: 108 % of control
dose: 200.0 mg/kg/injection, schedule: Q04DX003 (ip), vehicle: saline
  T/C: 100 % of control
dose: 400.0 mg/kg/injection, schedule: Q04DX003 (ip), vehicle: saline
  T/C: 106 % of control

## CCN(CC)CCOC1C=C(C)C2CC1C2(C)C (stereo unspecified)
dose: 50.0 mg/kg/injection, schedule: Q01DX005 (ip), vehicle: saline
  T/C: 101 % of control
dose: 100.0 mg/kg/injection, schedule: Q01DX005 (ip), vehicle: saline
  T/C: 101 % of control

## Cc1cccc(-c2cc(Cl)c3cc(S(=O)(=O)F)ccc3n2)c1
[2]
  T/C: 100 % of control
dose: 100.0 mg/kg/injection, schedule: Q04DX003 (ip), vehicle: saline with Tween-80
  T/C: 100 % of control
[3]
  T/C: 108 % of control
dose: 200.0 mg/kg/injection, schedule: Q04DX003 (ip), vehicle: saline with Tween-80
  T/C: 100 % of control
dose: 400.0 mg/kg/injection, schedule: Q01DX009 (ip), vehicle: saline with Tween-80
  T/C: 100 % of control
dose: 400.0 mg/kg/injection, schedule: Q04DX003 (ip), vehicle: saline with Tween-80
  T/C: 109 % of control

## Cc1c(C)c(=O)c2cc3c(=O)ccc(=O)c3cc2c1=O
dose: 12.5 mg/kg/injection, schedule: Q04DX003 (ip), vehicle: Klucel (hydroxypropylcellulose) (HPC)
  T/C: 101 % of control
dose: 25.0 mg/kg/injection, schedule: Q04DX003 (ip), vehicle: Klucel (hydroxypropylcellulose) (HPC)
  T/C: 96 % of control
dose: 50.0 mg/kg/injection, schedule: Q04DX003 (ip), vehicle: Klucel (hydroxypropylcellulose) (HPC)
  T/C: 103 % of control

## c1ccc(-c2nc3cc4c(cc3n3cccc23)oc2ccccc24)cc1
dose: 25.0 mg/kg/injection, schedule: Q01DX005 (ip), vehicle: saline with Tween-80
  T/C: 95 % of control
dose: 50.0 mg/kg/injection, schedule: Q01DX005 (ip), vehicle: saline with Tween-80
  T/C: 100 % of control
dose: 100.0 mg/kg/injection, schedule: Q01DX005 (ip), vehicle: saline with Tween-80
  T/C: 94 % of control

## Cc1ccccc1C1SCC(=O)N1c1ccccn1 (stereo unspecified)
[1]
  T/C: 104 % of control
[2]
  T/C: 101 % of control
[3]
  T/C: 95 % of control

## COc1cc(N)c(C)c2c(C)ccnc12
dose: 30.0 mg/kg/injection, schedule: Q01DX005 (ip), vehicle: Klucel (hydroxypropylcellulose) (HPC)
  T/C: 106 % of control
dose: 60.0 mg/kg/injection, schedule: Q01DX005 (ip), vehicle: Klucel (hydroxypropylcellulose) (HPC)
  T/C: 92 % of control and 97 % of control
